Consider one molecule from article PMC12495326 (The Journal of Biological Chemistry, 2025).

SMILES strings stand for the structures.

The test concerns the target T1, recombinant hDHFR (human dihydrofolate reductase) (Homo sapiens, UniProt P00374).
T1 construct: gene DHFR
T1 sequence (P00374 1-187): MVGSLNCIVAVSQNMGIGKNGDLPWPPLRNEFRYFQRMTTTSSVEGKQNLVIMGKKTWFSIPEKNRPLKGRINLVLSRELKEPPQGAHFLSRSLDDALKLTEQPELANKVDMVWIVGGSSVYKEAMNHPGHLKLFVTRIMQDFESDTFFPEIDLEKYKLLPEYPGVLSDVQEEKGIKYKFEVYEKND
Description: in vitro DHFR enzyme activity assay, dose-response. It counts as biochemical.

As a reminder, the IC50 is the midpoint of a concentration-inhibition curve. As to `CCc1nc(N)nc(N)c1-c1cc(Cl)cc(Cl)c1` [WCDD114], the IC50 amounted to 0.141 µM.
